Measured values as given in patent publication US10106538B2, “Inhibitors of protein kinases” (PRINCETON DRUG DISCOVERY INC, priority 2015, dated 2018).
Like-named read-outs stand apart in the source and are kept apart here.

Assays:
[1] = system: breast cancer cell line T-47D; assay: Cell growth assay with breast cancer cell line T-47D; assay type: cell-based; conditions: T-47D cells, PrestoBlue Cell Viability reagent, read-out: IC50 inhibition of cell growth
Description: […] of the complete medium was then gently dispersed over the surface of the cell layer for several times. The cell concentration was adjusted to 1×10^4 cells/mL with the complete medium. A 100 μL aliquot of the cell suspension was added to the well of a 96-well plate, and the plate was incubated overnight at 37° C. under 5% CO2 with saturated humidity. On the next day, the medium in each well was aspirated and replaced with a 100 μL aliquot of pre-warmed complete medium at 37° C. in the presence or absence of the test compounds at various concentrations from 0-100 μM. The test compounds were dissolved in DMSO, and the final DMSO concentration in the cell culture was no more than 1%. The plate was incubated for 72 hours at 37° C. under 5% CO2 with saturated humidity. At end of the cell culture a 10 μL aliquot of PrestoBlue® Cell Viability reagent (ThermoFisher Scientific) was added into the well and the plate was incubated at 37° C. for 30 min. The absorption at 570 and 600 nm were measured with a SpectraMax Microplate reader (Molecular Devices), The absorbance at […] was normalized to that at 600 nm.

PDGFRα = biological target: T1, PDGFRα (Homo sapiens, UniProt P16234); assay: Off-chip Mobility Shift Assay (MSA) kinase inhibition; assay type: biochemical; conditions: inhibitor concentration 0.01 μM
T1 construct: purchased Carna Biosciences
T1 sequence (P16234 24-1089): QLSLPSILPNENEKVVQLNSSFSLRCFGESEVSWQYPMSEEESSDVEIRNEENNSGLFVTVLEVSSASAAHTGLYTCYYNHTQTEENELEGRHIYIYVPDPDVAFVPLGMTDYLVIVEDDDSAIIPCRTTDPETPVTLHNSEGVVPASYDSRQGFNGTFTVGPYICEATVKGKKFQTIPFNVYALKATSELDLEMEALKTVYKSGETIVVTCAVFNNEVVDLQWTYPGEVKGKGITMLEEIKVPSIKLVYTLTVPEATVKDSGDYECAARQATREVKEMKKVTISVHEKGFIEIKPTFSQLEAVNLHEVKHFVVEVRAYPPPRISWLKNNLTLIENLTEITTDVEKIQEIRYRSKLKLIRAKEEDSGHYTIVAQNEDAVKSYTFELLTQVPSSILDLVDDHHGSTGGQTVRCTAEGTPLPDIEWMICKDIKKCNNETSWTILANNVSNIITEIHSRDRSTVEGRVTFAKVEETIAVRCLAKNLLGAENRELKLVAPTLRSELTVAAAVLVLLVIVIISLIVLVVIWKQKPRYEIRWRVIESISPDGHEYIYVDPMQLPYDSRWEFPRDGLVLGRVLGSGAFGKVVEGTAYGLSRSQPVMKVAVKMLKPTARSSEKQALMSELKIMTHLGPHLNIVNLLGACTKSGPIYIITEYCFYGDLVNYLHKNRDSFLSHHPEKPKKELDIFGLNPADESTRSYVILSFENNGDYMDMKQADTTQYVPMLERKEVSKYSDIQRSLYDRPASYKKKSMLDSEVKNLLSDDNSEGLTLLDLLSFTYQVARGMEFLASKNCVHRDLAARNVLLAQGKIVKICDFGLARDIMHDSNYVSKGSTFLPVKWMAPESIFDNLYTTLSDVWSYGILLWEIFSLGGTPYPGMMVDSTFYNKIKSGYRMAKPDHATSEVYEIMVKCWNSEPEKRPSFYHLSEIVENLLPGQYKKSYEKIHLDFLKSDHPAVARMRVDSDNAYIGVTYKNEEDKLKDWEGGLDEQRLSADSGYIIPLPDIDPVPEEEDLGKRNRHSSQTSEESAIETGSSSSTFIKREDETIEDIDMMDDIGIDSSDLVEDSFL
Description: (§1) Off-chip Mobility Shift Assay (MSA) by Cama Biosciences, Inc (Natick, Mass.) a used for measuring the kinase activity and inhibition. • 1) The 5 μL of x4 compound solution, 5 μL of x4 Substrate/ATP/Metal solution, and 10 μL of x2 kinase solution were prepared with assay buffer (20 mM HEPES, 0.01% Triton X100, 2 mM DTT, pH 7.5) and mixed and incubated in a well of polypropylene 384 well microplate for 1 or 5 hour(s)* at room temperature.

RAF1 = biological target: T2, RAF1 (Homo sapiens, UniProt P04049); assay: as above; assay type: biochemical; conditions: inhibitor concentration 0.01 μM
T2 construct: purchased Carna Biosciences
Description: as §1

KIT(V560G) = biological target: T3, KIT(V560G) (Homo sapiens, UniProt P10721, V560G); assay: as above; assay type: biochemical; conditions: inhibitor concentration 0.01 μM
T3 construct: purchased Carna Biosciences
T3 sequence (P10721 26-976 V560G): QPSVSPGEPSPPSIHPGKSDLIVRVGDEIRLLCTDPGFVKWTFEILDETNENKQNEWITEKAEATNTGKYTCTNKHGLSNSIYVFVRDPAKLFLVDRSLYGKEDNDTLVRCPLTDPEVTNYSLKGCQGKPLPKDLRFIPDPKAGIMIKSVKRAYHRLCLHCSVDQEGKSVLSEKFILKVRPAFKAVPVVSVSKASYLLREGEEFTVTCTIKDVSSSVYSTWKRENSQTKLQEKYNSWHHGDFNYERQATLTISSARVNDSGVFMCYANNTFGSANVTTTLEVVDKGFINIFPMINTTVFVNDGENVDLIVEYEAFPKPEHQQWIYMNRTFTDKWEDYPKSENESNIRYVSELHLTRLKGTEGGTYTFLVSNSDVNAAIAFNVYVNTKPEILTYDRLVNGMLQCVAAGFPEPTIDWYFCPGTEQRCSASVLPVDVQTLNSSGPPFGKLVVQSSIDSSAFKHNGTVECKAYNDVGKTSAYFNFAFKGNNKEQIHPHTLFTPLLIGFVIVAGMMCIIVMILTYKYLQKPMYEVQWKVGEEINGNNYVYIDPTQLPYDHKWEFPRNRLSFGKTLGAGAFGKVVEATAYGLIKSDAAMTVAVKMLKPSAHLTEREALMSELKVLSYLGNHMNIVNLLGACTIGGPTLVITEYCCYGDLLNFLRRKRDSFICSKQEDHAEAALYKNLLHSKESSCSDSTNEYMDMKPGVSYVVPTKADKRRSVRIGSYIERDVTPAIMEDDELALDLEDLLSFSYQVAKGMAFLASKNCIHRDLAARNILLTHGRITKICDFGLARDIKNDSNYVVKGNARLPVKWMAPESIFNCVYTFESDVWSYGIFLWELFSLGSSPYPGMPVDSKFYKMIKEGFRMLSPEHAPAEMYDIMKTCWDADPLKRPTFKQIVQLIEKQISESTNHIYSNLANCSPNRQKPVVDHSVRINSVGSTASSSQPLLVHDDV
Description: as §1

KIT = biological target: T4, KIT (Homo sapiens, UniProt P10721); assay: as above; assay type: biochemical; conditions: inhibitor concentration 0.01 μM
T4 construct: purchased Carna Biosciences
T4 sequence (P10721 26-976): as the sequence (P10721 26-976 V560G) above, with G535V counted along it
Description: as §1

KIT(T670I) = biological target: T5, KIT(T670I) (Homo sapiens, UniProt P10721, T670I); assay: as above; assay type: biochemical; conditions: inhibitor concentration 0.01 μM
T5 construct: purchased Carna Biosciences
T5 sequence (P10721 26-976 T670I): as the sequence (P10721 26-976 V560G) above, with G535V, T645I counted along it
Description: as §1

JAK1 = biological target: T6, JAK1 (Homo sapiens, UniProt P23458); assay: as above; assay type: biochemical; conditions: inhibitor concentration 0.01 μM
T6 construct: purchased Carna Biosciences
Description: as §1

SRC = biological target: T7, SRC (Homo sapiens, UniProt P12931); assay: as above; assay type: biochemical; conditions: inhibitor concentration 0.01 μM
T7 construct: purchased Carna Biosciences
Description: as §1

JAK2 = biological target: T8, JAK2 (Homo sapiens, UniProt O60674); assay: as above; assay type: biochemical; conditions: inhibitor concentration 0.01 μM
T8 construct: purchased Carna Biosciences
T8 sequence (O60674 whole entry): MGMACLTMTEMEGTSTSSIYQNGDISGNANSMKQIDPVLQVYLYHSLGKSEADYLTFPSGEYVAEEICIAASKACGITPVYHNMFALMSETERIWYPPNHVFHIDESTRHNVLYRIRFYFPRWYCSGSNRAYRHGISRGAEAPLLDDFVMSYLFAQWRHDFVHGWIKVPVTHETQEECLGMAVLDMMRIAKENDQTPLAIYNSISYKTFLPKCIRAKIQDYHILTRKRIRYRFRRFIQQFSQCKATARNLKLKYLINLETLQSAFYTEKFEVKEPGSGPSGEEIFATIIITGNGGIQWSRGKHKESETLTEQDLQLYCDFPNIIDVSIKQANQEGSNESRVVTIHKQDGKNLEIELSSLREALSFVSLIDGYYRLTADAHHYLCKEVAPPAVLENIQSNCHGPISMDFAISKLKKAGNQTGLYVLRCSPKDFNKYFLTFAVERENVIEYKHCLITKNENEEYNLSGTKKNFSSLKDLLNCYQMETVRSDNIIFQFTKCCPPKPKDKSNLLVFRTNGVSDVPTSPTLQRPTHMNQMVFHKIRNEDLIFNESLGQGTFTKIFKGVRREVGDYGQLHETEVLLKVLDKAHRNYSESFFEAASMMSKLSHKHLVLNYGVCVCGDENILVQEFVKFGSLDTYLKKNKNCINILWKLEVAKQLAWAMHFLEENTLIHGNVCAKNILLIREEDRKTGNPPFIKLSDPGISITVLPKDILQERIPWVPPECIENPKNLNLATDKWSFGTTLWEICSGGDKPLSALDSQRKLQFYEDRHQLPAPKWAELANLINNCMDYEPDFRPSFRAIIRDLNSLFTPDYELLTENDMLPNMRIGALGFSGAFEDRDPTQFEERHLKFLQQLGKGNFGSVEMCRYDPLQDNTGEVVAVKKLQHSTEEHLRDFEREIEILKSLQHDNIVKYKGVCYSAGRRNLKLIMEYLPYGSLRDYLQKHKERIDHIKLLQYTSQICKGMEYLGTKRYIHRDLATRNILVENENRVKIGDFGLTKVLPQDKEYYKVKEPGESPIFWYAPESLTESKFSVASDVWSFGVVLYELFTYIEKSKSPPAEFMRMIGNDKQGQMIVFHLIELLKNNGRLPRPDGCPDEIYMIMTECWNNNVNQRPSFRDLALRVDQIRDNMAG
Description: as §1

BRK = biological target: T9, BRK (Homo sapiens, UniProt Q13882); assay: as above; assay type: biochemical; conditions: inhibitor concentration 0.01 μM
T9 construct: purchased Carna Biosciences
Description: as §1

BRAF = biological target: T10, BRAF (Homo sapiens, UniProt P15056); assay: as above; assay type: biochemical; conditions: inhibitor concentration 0.01 μM
T10 construct: purchased Carna Biosciences
Description: as §1

JAK3 = biological target: T11, JAK3 (Homo sapiens, UniProt P52333); assay: as above; assay type: biochemical; conditions: inhibitor concentration 0.01 μM
T11 construct: purchased Carna Biosciences
T11 sequence (P52333 1-1124): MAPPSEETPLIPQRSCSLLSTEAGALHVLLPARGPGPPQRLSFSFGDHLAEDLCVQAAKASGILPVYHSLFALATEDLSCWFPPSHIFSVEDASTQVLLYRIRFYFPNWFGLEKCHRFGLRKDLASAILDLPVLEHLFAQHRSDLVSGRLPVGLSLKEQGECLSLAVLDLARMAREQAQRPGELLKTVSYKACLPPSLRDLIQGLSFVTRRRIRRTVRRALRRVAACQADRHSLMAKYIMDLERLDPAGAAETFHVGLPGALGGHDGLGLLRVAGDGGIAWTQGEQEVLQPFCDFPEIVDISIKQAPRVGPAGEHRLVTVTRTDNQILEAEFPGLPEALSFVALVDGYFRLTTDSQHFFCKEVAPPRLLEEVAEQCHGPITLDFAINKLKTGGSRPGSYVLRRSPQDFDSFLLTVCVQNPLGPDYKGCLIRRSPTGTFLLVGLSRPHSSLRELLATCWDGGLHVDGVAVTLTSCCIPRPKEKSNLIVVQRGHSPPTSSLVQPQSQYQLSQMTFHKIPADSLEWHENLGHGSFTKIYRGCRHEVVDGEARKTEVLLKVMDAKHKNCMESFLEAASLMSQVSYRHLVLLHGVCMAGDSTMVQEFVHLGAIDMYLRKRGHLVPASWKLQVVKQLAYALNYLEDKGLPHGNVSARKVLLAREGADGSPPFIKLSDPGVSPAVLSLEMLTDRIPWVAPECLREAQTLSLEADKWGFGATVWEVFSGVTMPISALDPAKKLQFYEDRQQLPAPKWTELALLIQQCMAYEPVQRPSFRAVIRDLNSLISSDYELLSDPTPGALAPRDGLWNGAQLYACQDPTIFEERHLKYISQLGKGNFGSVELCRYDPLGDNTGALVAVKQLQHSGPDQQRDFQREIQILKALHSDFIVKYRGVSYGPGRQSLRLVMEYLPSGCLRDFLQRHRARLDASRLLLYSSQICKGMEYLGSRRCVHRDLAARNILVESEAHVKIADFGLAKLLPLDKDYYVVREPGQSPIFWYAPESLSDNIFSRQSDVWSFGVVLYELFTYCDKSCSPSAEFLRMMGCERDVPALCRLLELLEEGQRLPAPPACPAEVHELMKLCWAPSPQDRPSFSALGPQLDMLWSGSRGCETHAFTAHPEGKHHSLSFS
Description: as §1

BRAF(V600E) = biological target: T12, BRAF(V600E) (Homo sapiens, UniProt P15056, V600E); assay: as above; assay type: biochemical; conditions: inhibitor concentration 0.01 μM
T12 construct: purchased Carna Biosciences
Description: as §1

SRM = biological target: T13, SRM (Homo sapiens, UniProt Q9H3Y6); assay: as above; assay type: biochemical; conditions: inhibitor concentration 0.01 μM
T13 construct: purchased Carna Biosciences
Description: as §1

KIT(D816V) = biological target: T14, KIT(D816V) (Homo sapiens, UniProt P10721, D816V); assay: as above; assay type: biochemical; conditions: inhibitor concentration 0.01 μM
T14 construct: purchased Carna Biosciences
T14 sequence (P10721 26-976 D816V): as the sequence (P10721 26-976 V560G) above, with G535V, D791V counted along it
Description: as §1

LCK = biological target: T15, LCK (Homo sapiens, UniProt P06239); assay: as above; assay type: biochemical; conditions: inhibitor concentration 0.01 μM
T15 construct: purchased Carna Biosciences
T15 sequence (P06239 whole entry): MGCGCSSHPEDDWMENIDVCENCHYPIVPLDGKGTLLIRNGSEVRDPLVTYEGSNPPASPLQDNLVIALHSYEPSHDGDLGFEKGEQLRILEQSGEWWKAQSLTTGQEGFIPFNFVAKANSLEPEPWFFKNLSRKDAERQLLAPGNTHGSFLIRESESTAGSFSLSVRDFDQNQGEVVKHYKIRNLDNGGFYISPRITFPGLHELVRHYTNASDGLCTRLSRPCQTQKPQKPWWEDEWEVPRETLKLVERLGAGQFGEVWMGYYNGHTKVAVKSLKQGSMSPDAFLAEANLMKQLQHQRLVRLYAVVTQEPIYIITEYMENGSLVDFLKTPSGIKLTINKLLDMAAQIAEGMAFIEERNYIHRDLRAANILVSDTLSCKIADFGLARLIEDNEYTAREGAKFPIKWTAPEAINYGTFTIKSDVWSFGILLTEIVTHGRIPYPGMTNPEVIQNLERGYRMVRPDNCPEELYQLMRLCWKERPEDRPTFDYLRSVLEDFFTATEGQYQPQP
Description: as §1

FGR = biological target: T16, FGR (Homo sapiens, UniProt P09769); assay: as above; assay type: biochemical; conditions: inhibitor concentration 0.01 μM
T16 construct: purchased Carna Biosciences
Description: as §1

PDGFRβ = biological target: T17, PDGFRβ (Homo sapiens, UniProt P09619); assay: as above; assay type: biochemical; conditions: inhibitor concentration 0.01 μM
T17 construct: purchased Carna Biosciences
T17 sequence (P09619 33-1106): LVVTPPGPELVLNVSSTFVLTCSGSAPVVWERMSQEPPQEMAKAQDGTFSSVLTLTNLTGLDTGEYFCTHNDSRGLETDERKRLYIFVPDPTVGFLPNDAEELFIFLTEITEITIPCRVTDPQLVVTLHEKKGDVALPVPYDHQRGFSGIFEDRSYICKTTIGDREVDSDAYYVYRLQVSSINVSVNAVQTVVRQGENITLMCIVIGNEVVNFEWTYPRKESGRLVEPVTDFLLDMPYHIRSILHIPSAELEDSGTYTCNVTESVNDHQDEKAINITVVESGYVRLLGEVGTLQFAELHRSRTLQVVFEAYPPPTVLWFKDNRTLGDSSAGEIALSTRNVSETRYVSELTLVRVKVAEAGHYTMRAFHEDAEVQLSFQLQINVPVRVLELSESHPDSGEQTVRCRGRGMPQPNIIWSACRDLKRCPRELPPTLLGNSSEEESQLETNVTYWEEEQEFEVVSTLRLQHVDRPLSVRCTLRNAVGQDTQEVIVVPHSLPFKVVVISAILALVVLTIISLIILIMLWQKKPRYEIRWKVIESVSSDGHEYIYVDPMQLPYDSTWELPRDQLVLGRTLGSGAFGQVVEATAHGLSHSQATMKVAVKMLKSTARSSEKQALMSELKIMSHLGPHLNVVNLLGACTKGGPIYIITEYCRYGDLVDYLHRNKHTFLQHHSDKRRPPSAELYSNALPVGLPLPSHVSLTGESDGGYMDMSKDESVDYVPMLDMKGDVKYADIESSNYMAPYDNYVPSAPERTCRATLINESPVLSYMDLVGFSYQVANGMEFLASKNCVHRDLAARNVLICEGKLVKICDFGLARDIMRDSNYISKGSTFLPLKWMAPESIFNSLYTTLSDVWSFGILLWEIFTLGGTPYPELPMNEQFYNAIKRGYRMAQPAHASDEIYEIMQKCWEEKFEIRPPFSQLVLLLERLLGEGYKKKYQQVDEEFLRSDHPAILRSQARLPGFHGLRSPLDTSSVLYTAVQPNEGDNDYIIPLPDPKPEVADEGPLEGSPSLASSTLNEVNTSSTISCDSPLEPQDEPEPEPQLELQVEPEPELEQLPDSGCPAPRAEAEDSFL
Description: as §1

PDGFRα(T674I) = biological target: T18, PDGFRα(T674I) (Homo sapiens, UniProt P16234, T674I); assay: as above; assay type: biochemical; conditions: inhibitor concentration 0.01 μM
T18 construct: purchased Carna Biosciences
T18 sequence (P16234 24-1089 T674I): as the sequence (P16234 24-1089) above, with T651I counted along it
Description: (§2) Off-chip Mobility Shift Assay (MSA) by Cama Biosciences, Inc (Natick, Mass.) a used for measuring the kinase activity and inhibition. • 1) The 5 μL of x4 compound solution, 5 μL of x4 Substrate/ATP/Metal solution, and 10 μL of x2 kinase solution were prepared with assay buffer (20 mM HEPES, 0.01% Triton X100, 2 mM DTT, pH 7.5) and mixed and incubated in a well of polypropylene 384 well microplate for 1 or 5 hour(s)* at room temperature. (*; depending on kinase) • 2) 70 μL of Termination Buffer (QuickScout Screening Assist A; Cama Biosciences) was added to the welt • 3) The reaction mixture was applied to LabChip system (Perkin Elmer), and the product and substrate peptide peaks were separated and quantitated. • 4) The kinase reaction was evaluated by the product ratio calculated from peak heights of product (P) and substrate (S) peptides (P/(P+S)). • 5) The reaction conditions were followed according to assay protocols of Ca n Biosciences, Inc (BMA 3F, 1-5-5 Minatojima-Minamimachi, Chuo-ku, Kobe 650-0047, Japan; www.carnabio.com). • 6 Data analysis: The readout value of reaction control (complete reaction mixture) was set as a 0% inhibition, and the readout value of background (Enzyme (−)) was set as a 100% inhibition, then the percent inhibition of each test solution was calculated, […]

PDGFRα(D842V) = biological target: T19, PDGFRα(D842V) (Homo sapiens, UniProt P16234, D842V); assay: as above; assay type: biochemical; conditions: inhibitor concentration 0.01 μM
T19 construct: purchased Carna Biosciences
T19 sequence (P16234 24-1089 D842V): as the sequence (P16234 24-1089) above, with D819V counted along it
Description: as §2

PDGFRα(V561D) = biological target: T20, PDGFRα(V561D) (Homo sapiens, UniProt P16234, V561D); assay: as above; assay type: biochemical; conditions: inhibitor concentration 0.01 μM
T20 construct: purchased Carna Biosciences
T20 sequence (P16234 24-1089 V561D): as the sequence (P16234 24-1089) above, with V538D counted along it
Description: as §2

inhibition at 0.01 µM (PDGFRα)	inhibition at 0.01 µM (RAF1)	inhibition at 0.01 µM (KIT(V560G))	inhibition at 0.01 µM (KIT)	inhibition at 0.01 µM (KIT(T670I))	inhibition at 0.01 µM (JAK1)	inhibition at 0.01 µM (SRC)	inhibition at 0.01 µM (JAK2)	inhibition at 0.01 µM (BRK)	inhibition at 0.01 µM (BRAF)	inhibition at 0.01 µM (JAK3)	inhibition at 0.01 µM (BRAF(V600E))	inhibition at 0.01 µM (SRM)	inhibition at 0.01 µM (KIT(D816V))	inhibition at 0.01 µM (LCK)	inhibition at 0.01 µM (FGR)	inhibition at 0.01 µM (PDGFRβ)	inhibition at 0.01 µM (PDGFRα(T674I))	inhibition at 0.01 µM (PDGFRα(D842V))	inhibition at 0.01 µM (PDGFRα(V561D))	Structure (SMILES)	also measured
> 20%	> 30%	> 30%	> 30%	> 30%	> 30%	> 30%	> 30%	> 30%	> 30%	> 30%	> 30%	> 30%	> 30%	> 30%	> 30%	> 20%	> 30%	> 30%	> 30%	C/C=C/S(=O)(=O)Nc1ccc(F)c(C(=O)c2c[nH]c3ncc(-c4ccc(Cl)cc4)cc23)c1F [200-93a]	IC50 ([1]; 72 hours): > 20 µM
< 20%	> 20%	< 20%	< 20%	< 20%	< 20%	< 20%	< 20%	> 20%	< 20%	< 20%	> 20%	> 20%	< 20%	> 20%	< 20%	< 20%	< 20%	< 20%	< 20%	COCCCS(=O)(=O)Nc1ccc(F)c(C(=O)c2c[nH]c3ncc(-c4ccc(Cl)cc4)cc23)c1F [200-123, N-[3-[5-(4-chlorophenyl)pyrrolo[2,3-b]pyridine-3-carbonyl]-2,4-difluoro-phenyl]-3-methoxypropane-1-sulfonamide]	IC50 ([1]; Homo sapiens, T47D, 72 h): < 20 µM
> 20%	> 20%	< 20%	< 20%	< 20%	< 20%	< 20%	< 20%	> 20%	< 20%	< 20%	< 20%	> 20%	< 20%	> 20%	< 20%	< 20%	< 20%	< 20%	< 20%	COCCS(=O)(=O)Nc1ccc(F)c(C(=O)c2c[nH]c3ncc(-c4ccc(Cl)cc4)cc23)c1F [200-139, N-[3-[5-(4-chlorophenyl)pyrrolo[2,3-b]pyridine-3-carbonyl]-2,4-difluorophenyl]-2-methoxyethanesulfonamide]	IC50 ([1]; Homo sapiens, T47D, 72 h): < 20 µM
																				O=C(c1c(F)ccc(NS(=O)(=O)CCO)c1F)c1c[nH]c2ncc(-c3ccc(Cl)cc3)cc12 [200-149, N-[3-[5-(4-chlorophenyl)pyrrolo[2,3-b]pyridine-3-carbonyl]-2,4-difluorophenyl]-2-hydroxyethanesulfonamide]	IC50 ([1]; Homo sapiens, T47D, 72 hours): < 20 µM
